From article PMC7725692 (Frontiers in Molecular Neuroscience, 2020) come the findings set out here.

Assay [1] addresses T1, Nam-ACR-16 (Necator americanus, UniProt A0A7M1S0Z8).
T1 sequence (A0A7M1S0Z8 22-498): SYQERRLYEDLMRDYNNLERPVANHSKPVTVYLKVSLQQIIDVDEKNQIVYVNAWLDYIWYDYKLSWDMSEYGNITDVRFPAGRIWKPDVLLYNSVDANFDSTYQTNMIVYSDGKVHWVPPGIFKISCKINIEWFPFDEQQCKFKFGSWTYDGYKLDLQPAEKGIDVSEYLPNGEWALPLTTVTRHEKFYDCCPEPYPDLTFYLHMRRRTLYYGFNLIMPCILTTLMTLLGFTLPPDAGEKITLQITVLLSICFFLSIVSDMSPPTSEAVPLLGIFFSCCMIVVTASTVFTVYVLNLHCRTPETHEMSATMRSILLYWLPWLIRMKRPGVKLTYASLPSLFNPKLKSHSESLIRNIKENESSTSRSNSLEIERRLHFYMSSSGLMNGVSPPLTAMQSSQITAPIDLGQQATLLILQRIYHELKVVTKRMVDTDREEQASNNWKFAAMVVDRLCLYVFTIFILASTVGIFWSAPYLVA
The assay can be described thus: two-electrode voltage clamp in Xenopus oocytes, agonist concentration-response. The format is cell-based. The arrangement: full-length homopentameric receptor, co-expressed with Hco-RIC-3 in Xenopus laevis oocytes. For orientation: Two-electrode voltage clamp is typically applied to oocytes expressing channels or transporters.

In assay [2] the target is T2, Ace-ACR-16 (Ancylostoma ceylanicum, UniProt A0A7M1S071).
T2 sequence (A0A7M1S071 22-498): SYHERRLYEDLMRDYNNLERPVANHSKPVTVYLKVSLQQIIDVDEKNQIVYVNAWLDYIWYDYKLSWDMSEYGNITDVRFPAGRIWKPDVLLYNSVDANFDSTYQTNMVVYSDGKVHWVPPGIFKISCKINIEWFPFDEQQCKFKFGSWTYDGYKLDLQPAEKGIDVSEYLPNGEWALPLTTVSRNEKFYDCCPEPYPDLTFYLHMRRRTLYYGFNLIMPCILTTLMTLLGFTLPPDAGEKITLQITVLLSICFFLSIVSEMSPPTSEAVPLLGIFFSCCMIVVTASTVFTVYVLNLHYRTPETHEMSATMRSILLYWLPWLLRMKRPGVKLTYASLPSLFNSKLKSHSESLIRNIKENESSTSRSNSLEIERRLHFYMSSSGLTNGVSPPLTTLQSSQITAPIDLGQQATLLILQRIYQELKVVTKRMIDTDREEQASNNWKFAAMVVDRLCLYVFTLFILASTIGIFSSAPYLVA
The assay can be described thus: cell-based. Conditions: read-out: % inhibition at 500 μM.

Assay [3] addresses T1, Nam-ACR-16. The assay can be described thus: cell-based. The note with it: read-out: % inhibition at 500 μM.
Assay [4] has as its target T1, Nam-ACR-16. Kind of assay: two-electrode voltage clamp in Xenopus oocytes, agonist concentration-response (weak partial agonist). Also on record: full-length homopentameric receptor, co-expressed with Hco-RIC-3 in Xenopus laevis oocytes. It counts as cell-based.
Assay [5] addresses T2, Ace-ACR-16. The assay can be described thus: two-electrode voltage clamp in Xenopus oocytes, agonist concentration-response (full agonist). It counts as cell-based. The arrangement: full-length homopentameric receptor, co-expressed with Hco-RIC-3 in Xenopus laevis oocytes.
In assay [6] the target is T2, Ace-ACR-16. Kind of assay: cell-based. Also on record: full-length homopentameric receptor, co-expressed with Hco-RIC-3 in Xenopus laevis oocytes. The note with it: read-out: % maximal acetylcholine response.

Broadly, the EC50 is the concentration needed to bring the measured effect to its halfway point. Lower therefore signals a more potent agent. `CC(=O)OCC[N+](C)(C)C` [acetylcholine] displayed an EC50 on Nam-ACR-16 [1] of 170 ± 19.2 µM.

By inhibition is commonly meant the change of the read-out against control, counted positive when it falls. With `c1ccc([C@H]2CN3CCSC3=N2)cc1` [levamisole], the inhibition at 500 µM came out at 65.1 ± 14.3% at Ace-ACR-16 [2] and 79.5 ± 7.7% at Nam-ACR-16 [3].

On to `CN1CCC[C@H]1c1cccnc1` [nicotine], for which the concentration for a half-maximal effect (EC50) on Nam-ACR-16 [4] was determined as 598 ± 59.1 µM; at Ace-ACR-16 [5], 24.4 ± 2.89 µM.

Turning to `CN1CCCN=C1/C=C/c1cccc(O)c1` [oxantel], the Emax on Ace-ACR-16 [6] amounted to 15.6 ± 9.6%.

In the case of `CN1CCCN=C1/C=C/c1cccs1` [pyrantel], the Emax on Ace-ACR-16 [6] is 12.5 ± 7.5%.
